Consider six compounds from patent US20110288136A1, “FLAVIVIRUS INHIBITION BY SULTAMS AND RELATED COMPOUNDS” (Oregon Health & Science University, priority 2006, published 2011).

For data set [1], the system named is WNV E. The data set is described as follows: WNV E protein expression by immunofluorescence. The note with it: 10 μg/mL, Vero cells, MOI 3, 24 h PI. In kind it is cell-based, West Nile virus. As for the experimental part: E protein expression was assayed by immunofluorescence and immunoblotting. Immunofluorescent and immunoblot detection of WNV E employed a commercially available anti-E monoclonal antibody (Chemicon Mab 8150). For immunofluorescence, Vero cells in DMEM, plus penicillin, streptomycin, and 2% FCS were mock-treated with DMSO, or treated with 10 μg/mL of inhibitor compound in DMSO, and infected with WNV at an MOI of 3. At 24 h PI, cells were processed for immunofluorescent detection of WNV E using a standard protocol at room temperature (Arvidson, B., Seeds, J., Webb, M., Finlay, L., and Barklis, E. (2003). Analysis of the retrovirus capsid interdomain linker region. Virology 308, 166-177). Briefly, washed cells were fixed 20 min in 3.7% formaldehyde in phosphate-buffered saline (PBS; 9.5 mM sodium potassium phosphate [pH 7.4], 137 mM NaCl, 2.7 mM KCl), washed, permeabilized 10 min in 0.2% Triton X-100 in PBS, washed, incubated 1 h with primary antibody diluted in DMEM plus 10% heat inactivated FCS (DMEM+FCS), washed, incubated 1 h with 1:1000 diluted Alexafluor594-conjugated goat anti-mouse secondary antibody (Molecular Probes; Invitrogen) in DMEM+FCS, washed, and mounted with PBS in 50% glycerol. Images were collected electronically on a Zeiss fluorescence microscope.
A handful of E protein-positive cells was observed over the faint background staining of the majority of cells.

For data set [2], the system named is Vero cells. As to the kind of experiment: MTS cytotoxicity assay (48 h). The format is cell-based. Conditions: highest drug concentrations employed. As for the experimental part: (§1) This example describes an assay used to evaluate inhibitor antiviral activity. Inhibitor screening, virus yield reduction, and cytotoxicity assays all employed Vero cells and media containing 2% FCS. Compound libraries were assayed for WNV antiviral activity by screening for protection of infected Vero cells from WNV cytopathic effects (CPE). To do so, 10^4 Vero cells in 96 well plate wells were pretreated with a final concentration of 10 μg/mL drug in a total volume of 1 μL DMSO, infected with WNV at a multiplicity of infection (MOI) of 0.2, and screened for protection from CPE for 3-5 d post-infection (PI). Virus yield reduction assays were modified from previous protocols (Hirsch, A., Medigeshi, G., Meyers, H., DeFilippis, V., Fruh, K., Briese, T., Lipkin, W. I., and Nelson, J. (2005). The Src family kinase c-Yes is required for maturation of West Nile virus particles. J. Virol. 79, 11943-11951). Briefly, 10^4 Vero cells in 96 well plate wells were treated with compound dilutions in 1 μL DMSO, and infected with WNV at an MOI of 1-3. At 20-24 h PI, virus-containing media samples were titered by limiting dilution on fresh Vero cells. After 5 d, media were removed, and surviving cells were stained with 0.0375% crystal violet in ethanol. For cytotoxicity assays, 10^4 Vero cells per 96 well plate well were treated with compound dilutions, grown for 48 h, and subjected to colorimetric assays for dehydrogenase levels in metabolically active cells using MTS (3-[4,5-dimethylthiazol-2-yl)-5-[3-carboxymethyoxy phenyl]-2-[4-sulfophenyl]-2H-tetrazolium]; Promega) substrate. MTS cytotoxicity assay results were confirmed microscopically by scoring for Trypan Blue (0.2%) exclusion.
(§2) Several antiviral sultams were evaluated in using these methods. The results, including CC50 and EC50 values for WNV and JEV, were determined by MTS cytotoxicity assays and virus yield reduction assays and are recorded in Table 2.
On the technique in general: Tetrazolium assays rely on reduction of a dye to a coloured formazan, in cell work by metabolically active cells.

Data set [3] can be described thus: MTS cytotoxicity assay (48 h). The format is cell-based. The note with it: African green monkey; MTS, Vero cells, 48 h. As for the experimental part:
as §1, §2

The subject of data set [4] is WNV E. The data set is described as follows: WNV E protein expression by immunoblot. In kind it is cell-based, West Nile virus. Conditions: 5 μg/mL, Vero cells, MOI 5, 18 h PI. As for the experimental part:
For immunoblot detection of WNV E Vero cells on […] in 1 mL media were mock-treated with 5 μL DMSO or treated with 5 μL 1 mg/mL inhibitor compound in DMSO (final concentration 5 μg/mL inhibitor compound), and infected with WNV at an MOI of 5. At 18 h PI, media were removed, cells were collected in IPB (10 mM Tris-hydrochloride [pH 7.5], 150 mM NaCl, 1 mM ethylenediaminetetraacetic acid (EDTA), 0.1% sodium dodecyl sulfate [SDS], 0.5% sodium deoxycholate, 1% Triton X-100, 0.02% sodium azide), mixed with 1 volume of 2 x sample buffer (12.5 mM Tris-hydrochloride [pH 6.8], 2% SDS, 20% glycerol, 0.25% bromphenol blue) plus 0.1 volume of β-mercaptoethanol (β-Me). Samples were frozen at −20° C., heated 5 min to 90° C. and subjected to SDS-polyacrylamide gel electrophoresis (SDS-PAGE). After electrophoresis and electroblotting onto nitrocellulose filters, WNV E proteins were detected using a dilution of Mab 8150 as the primary antibody, an alkaline phosphatase-conjugated goat anti-mouse IgG secondary antibody (Promega), and a BCIP (5-bromo-4-chloro-3-indolyl phosphate) plus NBT (nitroblue tetrazolium)-mediated color reaction for visualization.
Immunoblotting was performed using a similar infection regime as in the immunofluorescence protocol. […] The WNV envelope protein was detected as a band at approximately 55 kDa in cells treated with DMSO, or with ineffective candidate inhibitors.
A general note: Immunoblotting shows a protein as a band on a membrane.

For data set [5], the system named is WNV. As to the kind of experiment: virus yield reduction assay, WNV. In kind it is cell-based, West Nile virus. Conditions: for EC50: West Nile virus, Vero, read-out: WNV EC50. The procedure: as §1, §2
Data set [6] relates to West Nile virus (WNV; strain NY99). The data set is described as follows: protection of mice from WNV lethality. The format is in vivo, C57BL/6N mice. Conditions: 400 pfu WNV s.c. The procedure: This example describes the protective effect exerted by examples of the disclosed compounds against challenge with flaviviruses. […] With reference to FIG. 2A, on day 0, two groups of five C57BL/6N mice each were injected subcutaneously with 400 plaque forming units (pfu) of West Nile virus (WNV; strain NY99). Four hours prior to virus infection, and at two and four days post-infection (PI), one set of mice was injected i.p. with 0.02 ml DMSO per mouse (mock), while the other set was injected with 10 mg/kg TYT-1 in 0.02 ml DMSO. Survival was tracked for 21 days PI, and results are plotted as overall percentage survival for each group, versus the number of days PI. […] With reference to FIG. 2B, two groups of C57BL/6N mice were infected on day 0 with WNV as described above. Prior to infection, the 15 mice in the mock group were injected subcutaneously with 0.025 ml of DMSO, while the 10 mice in the experimental group were injected with 10 mg/kg TYT-1 in DMSO. Mice subsequently were injected i.p. with DMSO or TYT-1 at days 2, 4, 6, 8; and survival was tracked as above. […] The combined results of these two trial yielded a survival rate of 6/20 for mock treated mice and 11/15 for TYT-1 treated mice.

In data set [7] the test system is JEV. As to the kind of experiment: virus yield reduction assay, JEV. In kind it is cell-based. The note with it: Japanese encephalitis virus, Vero, read-out: JEV EC50. The procedure:
as §1, §2

For data set [8], the system named is WNV NY99. The data set is described as follows: RT real-time PCR quantitation of WNV RNA. In kind it is cell-based, West Nile virus. The note with it: 5 μg/ml, MOI 5, 18 h PI. The procedure: Cells were DMSO mock-treated or treated with 5 μg/ml TYT-1, and then mock-infected or infected with WNV NY99 at an MOI of 5. At 18 h PI, RNAs were isolated from cells and subjected to reverse transcription (RT) real-time PCR quantitation of WNV RNA following the protocol of Briese et al. (Briese, T., Glass, W., and Lipkin, W. I. (2000). Detection of West Nile virus sequences in cerebrospinal fluid. Lancet 355, 1614-1615). […] Thus, inhibition of WNV NY99 replication by TYT-1 is accompanied by a reduction in viral protein and viral RNA expression levels.
For orientation: Quantitative PCR measures a nucleic acid by following its amplification.

The subject of data set [9] is Vero cells. The data set is described as follows: MTS toxicity screening assay (3 d). The note with it: 10 μg/ml, subconfluent Vero cells. The format is cell-based. The source says:
TYT-1 was screened for toxicities using a colorimetric cell proliferation assay which employs MTS substrate to measure dehydrogenase activity in metabolically active cells (Barltrop, J. et al. (1991) 5-(3-carboxymethoxyphenyl)-2-(4,5-dimethylthiazoly)-3-(4-sulfophenyl)tetrazolium, inner salt (MTS) and related analogs of 3-(4,5-dimethyl thiazolyl)-2,5-diphenyltetrazolium bromide (mTT) reducing to purple water-soluble formazans as cell-viability indicators. Bioorg. & Med. Chem. Lett. 1, 611).
In this assay, subconfluent Vero cells were untreated, or treated 3 d with 10 μg/ml compound, and then subjected to MTS dehydrogenase assays, in which 490 nm absorbance values are proportional to cell viability signals. Results were plotted as the percentage of all treated compounds versus the percentage of the assay signal for untreated samples. Thus, nontoxic compounds give a signal approximately 100% that of the untreated signal.

The test system of data set [10] is WNV. As to the kind of experiment: protection of infected Vero cells from WNV cytopathic effects. The note with it: WNV 0.2 MOI. In kind it is cell-based, West Nile virus. As for the experimental part: as §1, with “For cytotoxicity assays, 10^4 Vero cells per 96 well plate well were treated with compound dilutions, grown for 48 h, and subjected to colorimetric assays for dehydrogenase levels in metabolically active cells using MTS (3-[4,5-dimethylthiazol-2-yl)-5-[3-carboxymethyoxy phenyl]-2-[4-sulfophenyl]-2H-tetrazolium]; Promega) substrate. MTS cytotoxicity assay results were confirmed microscopically by scoring for Trypan Blue (0.2%) exclusion.” left out

Where “and” joins values, the source holds several entries; their conditions need not be identical. Equal values may be shown once. Where only a bound is given, the exact number is not on record here.

Consider `O=S1(=O)CS/C(=N\C(=S)N(c2ccccc2)c2ccccc2)N1c1ccccc1` [TYT-1, N′-(1,1-dioxido-2-phenyl-1,4,2-dithiazolidin-3-ylidene)-N,N-diphenylthiourea], for which, in data set [1], the “cells expressing high levels of WNV E (immunofluorescence)” value was “very few cells”. For the same compound, the 50% cytotoxicity result in data set [2] is recorded as “not obtained”. Besides, in data set [3], the CC50 (commonly the concentration at which the toxic effect on the cells reaches its halfway point) at 48 h is above 70 µM. For the same compound, the “E protein signal (immunoblot)” value in data set [4] was “essentially no E protein signal”. The “reduction of viral titers” value in [5] (1 μg/ml) is given as “at least 100 fold”. Further, the EC50 (as a rule, the concentration giving half of the maximal effect) in data set [5] worked out at 0.7 µM; in data set [7] it was 7 µM. In addition, the “reduction of WNV titers” value in [5] (repeated tests) is 100- to 10,000 fold and 100-10,000 fold. The “animals succumbed at 21 days” value in data set [6] (10 mg/kg i.p. 4 h before infection and days 2, 4 PI, FIG. 2A) was “two out of five”. Further, the “survival rate, combined results of two trials” value in data set [6] (10 mg/kg, 21 days PI) is reported as 11/15. For the same compound, in data set [8], the “WNV RNAs per cell” value was determined as 27 copies per cell. Moreover, in data set [9], the MTS signal is 136 % of untreated levels.
`CC(C)N(C(=S)/N=C1\SC(C)S(=O)(=O)N1C)C(C)C` (stereo not shown) [TYT-2, (2,5-dimethyl-1,1-dioxido-1,4,2-dithiazolidin-3-ylidene)bis(1-methylethyl)thiourea]: half-maximal cytotoxicity in data set [3] (CC50 at 48 h) was put at 90 µM. Further, the concentration giving a half-maximal response (EC50) in data set [5] and in data set [7] was 30 µM throughout.
Turning to `CC(C)N(C(=S)/N=C1\SCS(=O)(=O)N1Cc1ccccc1)C(C)C` [TYT-3, [1,1-dioxido-2-(phenylmethyl)-1,4,2-dithiazolidin-3-ylidene]bis(1-methylethyl)-thiourea], the 50% cytotoxicity result in data set [2] was “not obtained”. The same compound had a CC50 at 48 h in data set [3] above 80 µM. Also, the EC50 in data set [5] stood at 80 µM; in data set [7] it was 8 µM.
For `O=S1(=O)CS/C(=N\C(=S)N(Cc2ccccc2)Cc2ccccc2)N1c1ccccc1` [TYT-4, (1,1-dioxido-2-phenyl-1,4,2-dithiazolidin-3-ylidene)-bis(phenylmethyl)-thiourea], in [3], half-maximal cytotoxicity (CC50 at 48 h) was put at 65 µM. The EC50 was 22 µM in [5] and 65 µM in data set [7].
As for `NC(=O)c1ncn([C@@H]2O[C@H](CO)[C@@H](O)[C@H]2O)n1` [ribavirin, reference compound], the “reduction of WNV titers” value in data set [5] (100 μM) is listed as 10 fold. Also, in data set [10] (<100 μM), the “protection of cells from WNV challenge” value is given as “failed to protect cells”.
On to interferon alpha, for which the “protection of cells from WNV challenge” value in data set [10] (1000 IU/ml) was “failed to protect cells”.
